Broadly, the inhibition is the share of the control response that was lost under treatment. As a reminder, the pIC50 is the negative decadic logarithm of the IC50, by convention in mol/L. Read a high pIC50 as a low IC50. One may read the pEC50 as −log10 of the EC50, conventionally taken in molar units. Read a high pEC50 as a low EC50. Usually AUC(0-t) stands for the area under the concentration-time curve up to a stated or last time point. Lower therefore signals low exposure. Broadly, the Cmax is the highest concentration seen after dosing. In general, half-life refers to how long it takes for the measured level to halve.

pEC50, pIC50: −log10 of the molar value.

The text below walks through data of PMC8020795 (Proceedings of the National Academy of Sciences of the …, 2021).

Data set [1] deals with orthotopic JHH-7 tumors. Nature of the data set: Orthotopic JHH-7 HCC model. It is filed as in vivo, nude mice. As to conditions: combination with sorafenib (40 mg/kg/d, oral); BPRCX807 15 mg/kg/d SC minipump. The method, then: In vivo hepatocellular carcinoma treatment studies […]
mouse PD-1 (200 µg/mouse; BioXcell, BE0146). The therapeutic efficacy and the changes in immune cells were analyzed after two weeks of treatment. The tumor volume was calculated with the following formula: volume = width × length × height/2. […]

The nature of data set [2]: Metabolic stability in liver microsomes. It is filed as in vitro ADME. Conditions: mouse, rat, dog, and human. The source says:
Figure S4. The metabolic stabilities of BPRCX807 in liver microsomes. BPRCX807 is […]
A general note: Liver microsomes are vesicles of endoplasmic reticulum, rich in cytochrome P450 enzymes.

Data set [3] has as its system other chemokine receptors (10 CCRs, 7 CXCRs, and 1 CX3CR subtypes). The data set can be described thus: PathHunter β-arrestin assay, chemokine receptor selectivity. It is filed as cell-based. Conditions: 10 µM. The source says:
(§1) Table: List of genes examined by real-time PCR and the primer sequences used.
(§2) Genes Forward primers Reverse primers […]
(§3) Vim 5’-[…]-3’ 5’-[…]-3’ […]
(§4) Zeb2 5’-[…]-3’ 5’-[…]-3’
(§5) Twist1 5’-[…]-3’ 5’-[…]-3’
(§6) Cdh1 5’-[…]-3’ 5’-[…]-3’
(§7) Mta3 5’-[…]-3’ 5’-[…]-3’ […]
(§8) Off-target standard assays
(§9) Methods employed in this study have been adapted from the scientific literature to […]
(§10) maximize reliability and reproducibility. Reference standards were run as an integral part of […]
(§11) each assay to ensure the validity of the results obtained. Radioligand binding Assays were […]
(§12) performed under conditions described in the accompanying "Methods" section of this report […]
(§13) by Eurofins Panlabs, Inc (Taipei, Taiwan, ROC).
(§14) BPRCX807 were tested in the hERG (hERG-CHO, automated patch-clamp) assay and determined at Eurofins Panlabs (Missouri, USA). The experiment was accepted in accordance with Eurofins validation Standard Operating Procedure.
(§15) Selectivity Screening of various chemokine receptors
(§16) The results were performed by Eurofins DiscoverX (Fremont, California, USA). The […]
(§17) PathHunter® β -Arrestin assay was performed in a homogenous, non-imaging assay format […]
(§18) using a technology developed by DiscoverX called Enzyme Fragment Complementation […]
(§19) called Enzyme Acceptor (EA). PK and EA are then expressed as fusion proteins in the cell, […]
(§20) restoring β-Gal activity which is measured using chemiluminescent PathHunter® Detection […]

Data set [4] deals with T1, CXCR4 (Homo sapiens, UniProt P61073). The description is as above. Format: cell-based.
Source text: as §1, §2, §3, §4, §5, §6, §7, §8, §9, §10, §11, §12, §13, §14, §15, §16, §17, §18, §19, §20

Data set [5] deals with T2, hERG (Homo sapiens, UniProt Q12809).
T2 construct: host or cells: CHO (hERG-CHO)
The data set can be described thus: hERG patch-clamp assay (hERG-CHO, automated patch-clamp). As to conditions: human, CHO cells that express hERG. Format: cell-based. The source says: (§21) page 16: Table: List of genes examined by real-time PCR and the primer sequences used. Genes Forward primers Reverse primers Slug [NT] Fn1 [NT] Cdh2 […] Foxc2 [NT] Zeb1 [NT] Zeb2 [NT] Twist1 [NT] Cdh1 [NT] Mta3 [NT] Cldn3 [NT] Cldn5 [NT] β-actin […] [NT] Off-target standard assays Methods employed in this study have been adapted from the scientific literature to maximize reliability and reproducibility. Reference standards were run as an integral part of each assay to ensure the validity of the results obtained. Radioligand binding Assays were performed under conditions described in the accompanying "Methods" section of this report by Eurofins Panlabs, Inc (Taipei, Taiwan, ROC). hERG patch-clamp assay BPRCX807 were tested in the hERG (hERG-CHO, automated patch-clamp) assay and determined at Eurofins Panlabs (Missouri, USA). The experiment was accepted in accordance with Eurofins validation Standard Operating Procedure. Selectivity Screening of various chemokine receptors The results were performed by Eurofins DiscoverX (Fremont, California, USA). The S15

Data set [6] concerns the target T3, hERG (human K+ channel) (Homo sapiens, UniProt Q12809).
T3 construct: host or cells: CHO (hERG-CHO)
The data set is described as above. It is filed as cell-based.
Source text: as §21

For data set [7], the target named is T1, CXCR4. The data set can be described thus: CXCL12-induced chemotaxis inhibition assay in CCRF-CEM cells. Format: cell-based. Further details: host or cells: CCRF-CEM. Conditions: mean ± SD. The method, then: Figure S1. Binding affinity and chemotaxis inhibition assay of BPRCX807. (a) Binding affinity (IC50) of BPRCX807 was determined by 50% inhibition of radioligand [125I]CXCL12 binding to hCXCR4-transfected HEK293T membrane; (b) CXCL12-induced chemotaxis inhibition assay was performed to measure the inhibitory activity of BPRCX807 using CCRF-CEM cell line. Values represent the mean ± SD of at least three independent […]
Figure S2. CXCR4+CD34+ stem cell mobilization. C57BL/6 male mice were […]
h after dosing, the peripheral blood was harvested for analyzing the number of CXCR4+CD34+ stem cells. The data are the mean values ± SEM (n = 3/group). Statistical

Data set [8] deals with 65 other nonprimary targets (receptors and ion channels). The data set can be described thus: Off-target standard assays, remaining panel. It is filed as binding. Conditions: 10 µM.
Source text: as §1, §2, §3, §4, §5, §6, §7, §8, §9, §10, §11, §12, §13, §14, §15
The results were performed by Eurofins DiscoverX (Fremont, California, USA). The

A short description of data set [9]: in vivo. Conditions: male, C57BL/6, mouse, in vivo, sc, 6 mg/kg. As to the method:
Pharmacokinetics and toxicological studies
Male C57BL/6 mice, each weighing 23.4–25.4 g, were quarantined for 1 week before drug treatment. Compounds dissolved in 100% saline were individually given to mice (n = 3) subcutaneously (6 mg/kg; nonfasted mice). Blood samples were collected via cardiac puncture at defined time points (0 (immediately before dosing), 0.03, 0.08, 0.25, 0.5, 1, 2, and 4 h after dosing) and then stored at −80 °C. The volume of the dosing solution given was 100 µL for each mouse. The plasma samples were analyzed by liquid chromatography– tandem mass spectrometry (LC–MS/MS), and the data were calculated by a standard noncompartmental method using the Kinetica software program (InnaPhase). […]

T1 sequence (P61073 whole entry): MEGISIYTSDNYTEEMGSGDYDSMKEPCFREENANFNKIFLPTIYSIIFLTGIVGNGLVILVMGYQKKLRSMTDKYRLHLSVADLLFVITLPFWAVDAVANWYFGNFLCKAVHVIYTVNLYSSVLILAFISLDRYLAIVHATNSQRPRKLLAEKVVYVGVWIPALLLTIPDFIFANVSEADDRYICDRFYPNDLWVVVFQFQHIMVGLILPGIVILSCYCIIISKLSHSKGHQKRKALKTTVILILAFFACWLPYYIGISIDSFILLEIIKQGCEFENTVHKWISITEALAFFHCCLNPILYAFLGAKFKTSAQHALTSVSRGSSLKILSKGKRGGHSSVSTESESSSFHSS
T2 sequence (Q12809 whole entry): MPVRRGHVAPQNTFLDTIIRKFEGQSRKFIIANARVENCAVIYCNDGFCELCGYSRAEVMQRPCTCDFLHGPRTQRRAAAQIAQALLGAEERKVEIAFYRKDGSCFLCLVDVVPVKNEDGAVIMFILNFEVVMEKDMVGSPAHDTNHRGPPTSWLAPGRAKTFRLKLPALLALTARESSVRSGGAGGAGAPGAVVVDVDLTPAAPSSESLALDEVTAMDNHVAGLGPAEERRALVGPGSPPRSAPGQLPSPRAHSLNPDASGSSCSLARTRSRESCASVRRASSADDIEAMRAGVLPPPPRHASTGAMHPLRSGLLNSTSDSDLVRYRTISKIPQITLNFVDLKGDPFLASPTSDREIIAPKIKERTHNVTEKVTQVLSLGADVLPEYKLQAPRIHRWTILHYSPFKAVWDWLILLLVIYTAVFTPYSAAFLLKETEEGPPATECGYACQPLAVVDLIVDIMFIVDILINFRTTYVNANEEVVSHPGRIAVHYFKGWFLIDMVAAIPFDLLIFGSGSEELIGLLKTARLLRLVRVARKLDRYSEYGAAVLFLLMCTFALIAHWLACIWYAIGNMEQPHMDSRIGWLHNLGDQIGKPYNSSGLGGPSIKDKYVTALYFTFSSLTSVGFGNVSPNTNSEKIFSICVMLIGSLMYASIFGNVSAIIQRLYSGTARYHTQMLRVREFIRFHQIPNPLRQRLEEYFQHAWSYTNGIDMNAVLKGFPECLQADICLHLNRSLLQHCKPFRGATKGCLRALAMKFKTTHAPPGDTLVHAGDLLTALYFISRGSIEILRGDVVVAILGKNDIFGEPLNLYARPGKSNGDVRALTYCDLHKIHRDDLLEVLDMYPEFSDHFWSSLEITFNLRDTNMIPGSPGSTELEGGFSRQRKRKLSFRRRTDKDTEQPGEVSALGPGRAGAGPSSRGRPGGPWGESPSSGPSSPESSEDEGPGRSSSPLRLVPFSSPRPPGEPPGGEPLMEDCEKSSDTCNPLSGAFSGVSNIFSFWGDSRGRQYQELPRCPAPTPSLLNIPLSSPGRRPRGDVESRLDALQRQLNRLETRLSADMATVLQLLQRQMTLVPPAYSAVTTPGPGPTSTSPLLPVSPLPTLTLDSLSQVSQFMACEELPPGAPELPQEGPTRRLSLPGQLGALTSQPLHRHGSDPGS
T3 sequence (Q12809 whole entry): as above

For the molecule `Cc1cc(NC2CCN(C(=O)CCNCC(=O)O)CC2)nc(NCc2nc(CCCNCCCNC3CCCCC3)co2)n1` [BPRCX807], in [1], the Tumor volume reduction was roughly 77%. The “Metabolic stability in liver microsomes” value in data set [2] was “metabolically stable”. In data set [3], the “Inhibition of other chemokine receptors (β-arrestin assay)” value is less than 10%. The molecule also registered an inhibition at 10 µM in data set [4] of 100%. The same molecule showed an inhibition at 1 µM in [5] (1 µM) of 13.8%. Further, in data set [5] (10 µM), testing at 10 µM gave an inhibition of 9%. This molecule yielded an inhibition at 100 µM in data set [5] (100 µM) of 17.4%. The molecule also gave a pIC50 in data set [6] of less than 4.00. Further, in data set [7], the pEC50 was 7.32. In addition, the “Inhibition of 65 other nonprimary targets” value in data set [8] is less than 50%. In data set [9], this molecule showed an AUC(0-t) of 16500 ng·h/mL, a Cmax of 18800 ng/mL and a half-life of 1 h.
